# Measurements reported in US20230339835A1, “2,3,5-TRIMETHYL-6-NONYLCYCLOHEXA-2,5-DIENE-1,4-DIONE FOR SUPPRESSING AND TREATING ALPHA-SYNUCLEINOPATHIES, TAUOPATHIES, AND OTHER DISORDERS” (PTC THERAPEUTICS, INC., priority 2018, published 2023).
# Marks after values point to notes of the source that are not given here.
# Experiments:
# Format in all cases: physicochemical
# [1] = Solubility in simulated fluids and water
# Procedure: Solubility of Pattern A and melted solid was assessed in Fasted-State Simulated Gastric Fluid (FaSSGF), Fed-State Simulated Intestinal Fluid (FeSSIF), and Fasted-State Simulated Intestinal Fluid (FaSSIF), water, and 0.5% methyl cellulose+2% Tween80 in water. Five foil-covered 4 mL vials were prepared with 11-13 mg of as-received material (ID-1-1), 10 mm stir bars were included. Five foil-covered 4 mL vials containing between 11-13 mg of C9 were melted on a hot plate at 70° C. for 10 min and cooled to room temperature for 5 min, 10 mm stir bars were included.
# Slurries were prepared with the as-received material ID-1-1 (Pattern A) and melted C9, each in 2.5 mL of simulated fluids (including 0.5% methyl cellulose+2% Tween80 in water), or water. The samples containing melted active pharmaceutical ingredient (API) were sonicated briefly, as they appeared to contain clumps of material. […] For solubility analysis 1 mL of each sample was pipetted into a syringe filter, the first 0.5 mL was filtered back into the source vial and the remaining 0.5 mL was filtered into HPLC vials with low volume inserts.
# The response factor calculated with the calibration points was used to determine the concentrations of API in the simulated fluids and water. Calibration samples were prepared with as-received material (ID-1-1) in ACN. The concentrations and peak areas for each calibration point were plotted and a response factor calculated for solubility assessment.
# Due to high pressures observed with the UPLC column, a different column and a modified method was employed for 24 h data points with 0.5% methyl cellulose+2% Tween80 in water, and 24 h in water (ID-30-4, ID-30-9 and ID-30-10). HPLC samples of ID-30-4 and 30-9 (those containing the methyl cellulose/Tween80 mixture) were diluted 10× with ACN. These samples plus a new set of injections of the calibration points were analyzed, a new response factor was determined, and the solubility of the remaining samples was calculated (response factor: 8084.7908; R2: 0.9989).
# [2] = Humidification cycling by dynamic vapor sorption (DVS)
# Procedure: As-received material (ID 1-1) was subjected to humidification cycling by dynamic vapor sorption (DVS) instrument. The material underwent a 0.01% change in mass in the 15-75% relative humidity range, and a 0.08% change in mass over the full range of 2-95% relative humidity. Following humidification cycling, the solid was analyzed by XRPD.
# [3] = Solid form stability, one week at 75% RH and 40° C.; conditions: 7 days, 75% relative humidity
# Procedure: The solid form stability of the material was assessed over one week. 49.0 mg of ID-1-1 was placed inside of a foil-covered 4 mL vial, which was covered with a KimWipe. This vial was placed inside a 20 mL vial containing saturated aqueous sodium chloride. The vial was placed on a hot plate at 40° C. for 7 days, creating an atmosphere of 75% relative humidity in the system. After 7 days, the solid was sampled for HPLC (ID-4-1).
# A sample of the stressed material was plated and analyzed by XRPD; the observed pattern was Pattern A. The XRPD data is shown in FIG. 16. Microscopy images of ID-4-1 were captured at 100× and 400× magnification. The images are shown in FIG. 17A (100×) and FIG. 17B (400×).
structure (smiles),measurement,setting,value
"CCCCCCCCCC1=C(C)C(=O)C(C)=C(C)C1=O [Pattern A, 2,3,5-trimethyl-6-nonylcyclohexa-2,5-diene-1,4-dione]",Solubility at 24 hours,"[1]; 0.5% MC + 2% Tween80 (aq), Phenomenex Luna Phenyl Hexyl HPLC column and modified method",0.31 mg/mL
same,Solubility at 24 hours (mg/mL),"[1]; 0.5% MC + 2% Tween80 (aq), Phenomenex Luna Phenyl Hexyl HPLC column and modified method, listed as A",0.31# mg/mL
same,Conc. (mg/mL) at 30 min,[1]; 0.5% MC + 2% Tween80 (aq.),0.53 mg/mL
same,Conc. (mg/mL) at 30 min,[1]; FaSSGF,BDL
same,Solubility at 24 hours (mg/mL),[1]; FaSSGF,BDL
same,Conc. (mg/mL) at 30 min,[1]; FaSSIF,0.01 mg/mL
same,Solubility at 24 hours (mg/mL),[1]; FaSSIF,BDL
same,Conc. (mg/mL) at 30 min,[1]; FeSSIF,0.29 mg/mL
same,Solubility at 24 hours,[1]; FeSSIF,0.20 mg/mL
same,Conc. (mg/mL) at 30 min,[1]; water,BDL
same,Solubility at 24 hours (mg/mL),[1]; water,BDL
same,DVS Change Mass (wt. %),[2]; 2-95% RH,0.08 wt. %
same,DVS Change Mass (wt. %),[2]; 15-75% RH,0.01 wt. %
same,change in mass (DVS),[2]; 15-75% relative humidity range,0.01%
same,hygroscopicity,[2]; DVS humidification cycling,not hygroscopic
same,change in mass (DVS),[2]; full range of 2-95% relative humidity,0.08%
same,XRPD pattern of stressed material,[3],Pattern A
same,impurities by HPLC in stability sample,[3],did not show any impurities
